This experiment concerns the target T1, F876L mutant Androgen Receptor (AR-F876L) (Homo sapiens, UniProt P10275, F877L).
T1 construct: expressed in transfected cells; host or cells: LNCaP
T1 sequence (P10275 1-920 F877L): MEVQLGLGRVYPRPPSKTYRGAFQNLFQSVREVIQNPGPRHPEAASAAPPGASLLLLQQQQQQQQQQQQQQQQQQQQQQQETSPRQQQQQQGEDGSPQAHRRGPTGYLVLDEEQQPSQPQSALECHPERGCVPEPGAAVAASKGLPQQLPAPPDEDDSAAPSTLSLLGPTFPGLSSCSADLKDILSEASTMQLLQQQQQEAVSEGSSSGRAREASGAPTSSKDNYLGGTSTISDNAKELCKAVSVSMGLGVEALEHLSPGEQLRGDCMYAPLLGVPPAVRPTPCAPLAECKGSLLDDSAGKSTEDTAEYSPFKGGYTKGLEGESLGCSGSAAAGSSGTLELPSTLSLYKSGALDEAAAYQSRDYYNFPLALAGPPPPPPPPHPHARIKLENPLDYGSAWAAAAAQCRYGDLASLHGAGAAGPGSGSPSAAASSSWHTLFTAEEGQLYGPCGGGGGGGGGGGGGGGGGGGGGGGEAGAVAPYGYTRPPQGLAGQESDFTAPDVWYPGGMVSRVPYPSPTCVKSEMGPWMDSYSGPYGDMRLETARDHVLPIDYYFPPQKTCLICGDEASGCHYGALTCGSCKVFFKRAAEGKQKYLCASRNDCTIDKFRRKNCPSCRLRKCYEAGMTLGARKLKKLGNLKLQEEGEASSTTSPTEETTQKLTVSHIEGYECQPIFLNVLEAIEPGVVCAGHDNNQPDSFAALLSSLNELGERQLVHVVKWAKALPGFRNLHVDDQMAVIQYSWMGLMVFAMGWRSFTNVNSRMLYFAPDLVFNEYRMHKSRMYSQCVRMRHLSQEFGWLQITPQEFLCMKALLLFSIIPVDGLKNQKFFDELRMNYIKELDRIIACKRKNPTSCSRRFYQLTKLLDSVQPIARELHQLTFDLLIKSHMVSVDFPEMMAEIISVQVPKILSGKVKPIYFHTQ
The experiment in a line: AR reporter assay, LNCaP-AR-F876L ANT (antagonist mode). Type of experiment: cell-based. As to conditions: for Emax: read-out: LNCaP-AR-F876L ANT MAX % Inh. An excerpt: LNCaP AR (cs) and LNCaP F876L luciferase cell lines were generated by transduction of each cell line (description of cell line generation Joseph J D, Lu N, Qian J, Sensintaffar J, Shao G, Brigham D, Moon M, Maneval E C, Chen I, Darimont B, Hager J H. A clinically relevant androgen receptor mutation confers resistance to second-generation antiandrogens enzalutamide and ARN-509. Cancer Discov 2013; 3:1020-1029) with an Androgen Response Element Firefly Luciferase lentiviral construct at an MOI (multiplicity of infection) of 50 following the manufacturer's instructions (Qiagen). A stable pooled-population cell line was generated using puromycin (Life Technologies) selection at 1:10,000 v/v. The protocol below was used for both cell lines and for testing of the compounds of Formula (I) of the present invention.
LNCaP cells were grown to about 80% confluence, media removed and cells rinsed in Hank's balanced salt solution prior to separation from the plate with 0.05% Trypsin EDTA. Cells were lifted and trypsin negated in complete CSS (charcoal stripped serum) culture media. CSS was maintained on cells for 24 h prior to assay, at which time 5,000 cells/[…] were seeded in Greiner 384 well White/White Tissue Culture Treated Plates and incubated for a further 1-2 hours at 37° C., 5% CO2, prior to addition of 10 μL of 4× Test Compounds (compounds described herein) or Assay Controls (all diluted in complete media containing 10% css). A further 10 μL of 4× R-1881 Agonist Challenge (antagonist assay) or Buffer (agonist assay) was then added (all diluted in complete media containing 10% css). Agonist challenge was at 400 pM for WT assay and 600 pM for F876L assay. Plates containing cells and compounds herein were incubated for a further 20-24 hours at 37° C., 5% CO2 before addition of 40 μL/well of Steady-Glo Luciferase Assay System Reagent (Promega#E2520). After 1 h, plates were read for luminescence on a BMG Pherastar.
Agonist challenge: R-1881 (Metribolone)—Agonist
Antagonist control (low control): 5-(5-(4-((1-Methylpiperidin-4-yl)oxy)phenyl)-8-oxo-6-thioxo-5,7-diazaspiro[3.4]octan-7-yl)-3-(trifluoromethyl)picolinonitrile (WO 2011/103202, EXAMPLE 19, Compound 129, CAS #1332390-06-3).
(1−(Sample RLU−Ave Low Control RLU[10 μM Antagonist Control])/(Ave High Control RLU [400 pM R-1881]−Ave Low Control RLU[10 μM Antagonist Control]))*100.
EC/IC50 calculations were achieved utilizing calculated RLU data and data fitting macros. Data were fit using least-squares methods to the following formula: […]
As used herein: • pIC50 is defined as −Log10(IC50 expressed in [Molar]). • pEC50 is defined as −Log10(EC50 expressed in [Molar]). • MAX % Inh is defined as the maximum % inhibition of R1881 control response observed for a compound over the tested concentration range. • MAX % Stim is defined as the maximum % stimulation (agonist response) observed for a compound over the tested concentration range. • LNCaP-AR-wt ANT refers to the reporter assay using LNCaP cells stably transfected with the Androgen Response Element Firefly Luciferase lentiviral construct and wild-type Androgen Receptor (AR-wt) in Antagonist mode. • LNCaP-AR-wt AG refers to the reporter assay using LNCaP cells stably transfected with the Androgen Response Element Firefly Luciferase lentiviral construct and wild-type Androgen Receptor (AR-wt) in Agonist mode. • LNCaP-AR-F876L ANT refers to the reporter assay using LNCaP cells stably transfected with the Androgen Response Element Firefly Luciferase lentiviral construct and F876L mutant Androgen Receptor (AR-F876L) in Antagonist mode. • LNCaP-AR-F876L AG refers to the reporter assay using LNCaP cells stably transfected with the Androgen Response Element Firefly Luciferase lentiviral construct and F876L mutant Androgen Receptor (AR-F876L) in Agonist mode.
A general note: In a reporter assay the amount or activity of a reporter protein is the signal.

Counter-ions that a name gives are not always drawn.

8 compounds from patent US20190337924A1, “SUBSTITUTED HYDANTOIN AND THIOHYDANTOIN DERIVATIVES AS ANDROGEN RECEPTOR ANTAGONISTS” (Janssen Pharmaceutica NV, priority 2016, published 2019) can be followed below.

The IC50 is the concentration that inhibits the measured activity by half. High values mean a need for much substance, low ones inhibition by little substance.

For `CN1CCC(Oc2ccc(N3C(=S)N(c4ccc(C#N)c(Cl)c4)C(=O)C34CCC4)cn2)CC1` [Compound 24, 2-Chloro-4-(5-(6-((1-methylpiperidin-4-yl)oxy)pyridin-3-yl)-8-oxo-6-thioxo-5,7-diazaspiro[3.4]octan-7-yl)benzonitrile hydrochloride], half-maximal inhibition (IC50) required 77.6 nM and the Emax was 99.8%.

On to `CN1CCC(Oc2ccc(N3C(=S)N(c4ccc(C#N)c(C(F)(F)F)c4)C(=O)C3(C)C)cc2)CC1` [Compound 2, 4-(4,4-Dimethyl-3-(4-((1-methylpiperidin-4-yl)oxy)phenyl)-5-oxo-2-thioxoimidazolidin-1-yl)-2-(trifluoromethyl)benzonitrile hydrochloride], for which the midpoint of inhibition, the IC50, lay at 69.2 nM and the Emax was determined as 101%.

Take `CC1(C)C(=O)N(c2ccc(C#N)c(C(F)(F)F)c2)C(=S)N1c1ccc(OC2CCNCC2)cc1` [Compound 1, 4-(4,4-Dimethyl-5-oxo-3-(4-(piperidin-4-yloxy)phenyl)-2-thioxoimidazolidin-1-yl)-2-(trifluoromethyl)benzonitrile]: the midpoint of inhibition, the IC50, lay at 41.7 nM and the Emax worked out at 102%.

Regarding `N#Cc1ccc(N2C(=O)C3(CCC3)N(c3ccc(OC4CCNCC4)nc3)C2=S)cc1C(F)(F)F` [Compound 13, 4-(8-Oxo-5-(6-(piperidin-4-yloxy)pyridin-3-yl)-6-thioxo-5,7-diazaspiro[3.4]octan-7-yl)-2-(trifluoromethyl)benzonitrile hydrochloride], the IC50 is 57.5 nM and the Emax is 102%.

`N#Cc1ccc(N2C(=O)C3(CCC3)N(c3ccc(OC4CCNCC4)cc3)C2=S)cc1C(F)(F)F` [Compound 11, 4-(8-Oxo-5-(4-(piperidin-4-yloxy)phenyl)-6-thioxo-5,7-diazaspiro[3.4]octan-7-yl)-2-(trifluoromethyl)benzonitrile]: inhibition was half-maximal at 107 nM (IC50) and the Emax came out at 102%.

As to `CC1(C)C(=O)N(c2ccc(C#N)c(C(F)(F)F)c2)C(=S)N1c1cnc(OC2CCNCC2)nc1` [Compound 5, 4-(4,4-Dimethyl-5-oxo-3-(2-(piperidin-4-yloxy)pyrimidin-5-yl)-2-thioxoimidazolidin-1-yl)-2-(trifluoromethyl)benzonitrile], the IC50 is 229 nM and the Emax is 101%.

As for `CN1CCC(Oc2ccc(N3C(=S)N(c4ccc(C#N)c(C(F)(F)F)c4)C(=O)C34CCC4)cn2)CC1` [Compound 14, 4-(5-(6-((1-Methylpiperidin-4-yl)oxy)pyridin-3-yl)-8-oxo-6-thioxo-5,7-diazaspiro[3.4]octan-7-yl)-2-(trifluoromethyl)benzonitrile], the IC50 is 57.5 nM and the Emax was found to be 101%.

Take `CC1(C)C(=O)N(c2ccc(C#N)c(Cl)c2)C(=S)N1c1ccc(OC2CCNCC2)cc1` [Compound 7, 2-Chloro-4-(4,4-dimethyl-5-oxo-3-(4-(piperidin-4-yloxy)phenyl)-2-thioxoimidazolidin-1-yl)benzonitrile hydrochloride]: inhibition was half-maximal at 38 nM (IC50) and the Emax came to 101%.
